Laboratory results as given in publication PMC8795197, “Safety and activity of WX-0593 (Iruplinalkib) in patients with ALK- or ROS1-rearranged advanced non-small cell lung cancer: a phase 1 dose-escalation and dose-expansion trial” (Signal Transduction and Targeted Therapy, 2022).
Where two headings read alike, the source gives them in different places.

Experiments:
[1] = Tissue distribution of total radioactivity after [14C]WX-0593; format: in vivo, SD rats
Method: At 0.5 h after drug administration, the total radioactivity was mainly distributed in the gastrointestinal tract, liver, oesophagus, and adrenal glands. […] The distribution of total radioactivity in other tissues in descending order was lungs, kidneys, spleen, pancreas, lymph nodes, heart, uterus and ovaries, plasma, thymus, prostate, whole blood, skeletal muscles, skin, testis and epididymis, and whole brain. […] Only the total radioactivity of skeletal muscles (1417 ng Eq./g), whole blood (1366 ng Eq./g), body fat (1079 ng Eq./g), testis and epididymis (619 ng Eq./g), and whole brain (114 ng Eq./g) were lower than that of plasma at the same time point. […] At the last sampling time point (72 h), most total radioactivity had been cleared from the body and only the spleen, adrenal glands, liver, testis and epididymis, kidneys, lymph nodes, uterus and ovaries, intestinal wall, lungs, and thymus had been traced small amount of radioactivity.

Karpas299 (NPM-ALK) = assay: Cell proliferation inhibition assay; format: cell-based
[2] = Absorption study (IV and oral PK); format: in vivo, cynomolgus monkeys; details: for bioavailability: read-out: absolute bioavailability
Method: Rats and cynomolgus monkeys were selected for the absorption studies based on the "Guidance on the non-clinical pharmacokinetics of medicinal products" (CFDA, 2014) and the in vitro study of species differences in liver microsomes and hepatocyte metabolism.
In general, within the range of 0.5 mg/kg–8 mg/kg, the systemic exposure in male cynomolgus monkeys increased proportionately with the dose, while increased slightly faster than the dose in female cynomolgus monkeys.

[3] = 0.5 h, oral [14C]WX-0593 8 mg/kg

## COc1cc(N2CCC3(CCN(C)CC3)CC2)ccc1Nc1ncc(Cl)c(Nc2ccccc2P(C)(C)=O)n1 [WX-0593]
[1]; 0.5 h
  total radioactivity relative to plasma, adrenal glands: 8.76 times
  total radioactivity relative to plasma, intestinal wall: 28.1 times
  total radioactivity relative to plasma, liver: 9.96 times
  total radioactivity relative to plasma, oesophagus: 9.07 times
  total radioactivity relative to plasma, stomach wall: 18.6 times
[1]; [3]
  mean total radioactivity, adrenal glands: 13334 ng Eq./g
  mean total radioactivity, intestinal wall: 42737 ng Eq./g
  mean total radioactivity, liver: 15160 ng Eq./g
  mean total radioactivity, oesophagus: 13803 ng Eq./g
  mean total radioactivity, plasma: 1522 ng Eq./g
  mean total radioactivity, stomach wall: 28265 ng Eq./g
[1]; 3 h
  total radioactivity, body fat: 1079 ng Eq./g
  total radioactivity, plasma: 2062 ng Eq./g
  total radioactivity, skeletal muscles: 1417 ng Eq./g
  total radioactivity, testis and epididymis: 619 ng Eq./g
  total radioactivity, whole blood: 1366 ng Eq./g
  total radioactivity, whole brain: 114 ng Eq./g
[1]; 72 h
  mean total radioactivity, adrenal glands: 1296 ng Eq./g
  mean total radioactivity, intestinal wall: 129 ng Eq./g
  mean total radioactivity, kidneys: 438 ng Eq./g
  mean total radioactivity, liver: 922 ng Eq./g
  mean total radioactivity, lungs: 103 ng Eq./g
  mean total radioactivity, lymph nodes: 292 ng Eq./g
  mean total radioactivity, spleen: 1883 ng Eq./g
  mean total radioactivity, testis and epididymis: 504 ng Eq./g
  mean total radioactivity, thymus: 95.8 ng Eq./g
  mean total radioactivity, uterus and ovaries: 187 ng Eq./g
Karpas299 (NPM-ALK)
  growth inhibition: significantly inhibits the growth
[2]; both sexes, cynomolgus monkey, plasma, oral gavage 0.5–8 mg/kg
  Tmax: 2 to 3.33 h
[2]; both sexes, cynomolgus monkey, plasma, oral gavage 0.5–8 mg/kg, read-out: plasma terminal half-life
  half-life: 3.29 to 8.14 h
[2]; both sexes, cynomolgus monkey, plasma, single IV 0.5 mg/kg, read-out: AUC0-24h
  AUC(0-t): 323 ± 91.1 ng·h/mL
[2]; both sexes, cynomolgus monkey, plasma, single IV 0.5 mg/kg, read-out: apparent volume of distribution (Vdss)
  Vd: 7.7 ± 1.24 L/kg
[2]; both sexes, cynomolgus monkey, plasma, single IV 0.5 mg/kg, read-out: mean residence time (MRT0-inf)
  MRT inf: 5.03 ± 138 h
[2]; both sexes, cynomolgus monkey, plasma, single IV 0.5 mg/kg, read-out: plasma clearance (CL)
  clearance: 26.8 ± 6.82 mL/min/kg
[2]; both sexes, cynomolgus monkey, plasma, single IV 0.5 mg/kg, read-out: plasma elimination half-life T1/2 (converted)
  half-life: 4.37 ± 2.38 h
[2]; both sexes, cynomolgus monkey, plasma, single oral 0.5 mg/kg
  bioavailability: 37.5%
[2]; both sexes, cynomolgus monkey, plasma, single oral 8 mg/kg
  bioavailability: 74.7%
[2]; oral 2 mg/kg, 7 consecutive days
  drug accumulation: no significant drug accumulation
[2]; single oral 2 mg/kg
  absolute bioavailability: 46.6%
